Results taken from patent US20060293351A1, “Promotion of wound healing” (priority 1999, published 2006).

Legend:
skin wound = test: Wound strength (bursting point, Instron tensiometer); assay type: in vivo, rats; conditions: irradiated or not; one or six injections
Method: Wound strength was assessed by preparing rats substantially as described above, except that one group of rats (not irradiated) only received one injection of Halofuginone after wounding. The strength of wounds was measured as follows. First, a square of skin which was approximately 20 mm long and 16 mm wide, and which included the main part of the wound, was excised from sacrificed rats. Next, the skin was cut, perpendicular to the wound, to yield 7 strips of skin, each of which was 2 mm wide. The skin strips were secured between paper reinforcement frames and loaded on an Instron tensiometer for stretching at a constant rate of 25 mm/min. The bursting point was then recorded.

collagen α1(I) gene = test: Collagen α1(I) gene expression at the stricture site (in situ hybridization, image analysis); assay type: in vivo, rats; conditions: after coagulation treatment, 3 biopsies for each type of treatment
Method: The experiments were performed as follows. First, urethral catherization was performed on tile rats with a 23 G Quik-Cath (Baxter, Ireland) sheath. A spinal needle was inserted into the sheath, and was used to apply a coagulation current at a level of 10 W to the outer end of the needle for 1 second at three locations, 8, 10 and 12 mm from the meatus, in order to produce urethral strictures. Halofuginone was given for 7 days starting at the day of stricture formation, either orally at concentrations of 1 ppm and 5 ppm in the diet, or by injection of 0.03% Halofuginone dissolved in 2% lignocaine directly into the urethra once a day. After 21 days, the rats were sacrificed and the sutures were reopened to determine the level of urethral stricture formation, at which time biopsies of the tissue were taken. For hybridization with the genetic probe, the sections were deparafinized in xylene, rehydrated through a graded series of ethanol solutions, rinsed in distilled water for 5 minutes and then incubated in 2×SSC at 70° C. for 30 minutes. The sections were then rinsed in distilled water and treated with pronase, 0.125 mg/ml in 50 mM Tris-HCl, 5 mM EDTA, pH 7.5, for 10 minutes. Alter digestion, the slides were rinsed with distilled water, post-fixed in 10% formalin in PBS and blocked in 0.2% glycine. […] Alkaline phosphatase activity was detected in the sections as previously described [Knopov. […]

collagen = test: Collagen content at the stricture site (Sirius red staining); assay type: in vivo, rats
Method: The experiments were performed as follows. First, urethral catherization was performed on tile rats with a 23 G Quik-Cath (Baxter, Ireland) sheath. A spinal needle was inserted into the sheath, and was used to apply a coagulation current at a level of 10 W to the outer end of the needle for 1 second at three locations, 8, 10 and 12 mm from the meatus, in order to produce urethral strictures. Halofuginone was given for 7 days starting at the day of stricture formation, either orally at concentrations of 1 ppm and 5 ppm in the diet, or by injection of 0.03% Halofuginone dissolved in 2% lignocaine directly into the urethra once a day. After 21 days, the rats were sacrificed and the sutures were reopened to determine the level of urethral stricture formation, at which time biopsies of the tissue were taken. The tissue was sectioned so that histological studies could be performed. Briefly, the tissue samples were collected into phosphate-buffered saline (PBS) and fixed overnight in 4% paraformaldehyde in PBS at 4° C. Serial 5 μm sections were prepared after the samples had been dehydrated in graded ethanol solutions, cleared in chloroform and embedded in Paraplast. Differential staining of collagenous and non-collagenous proteins was performed with 0.1% Sirius red and 0.1% fast green as a counter-stain in picric acid. […]

[1] = test system: fibroblasts derived from rat urethra; test: cells; assay type: cell-based
Method: Urethral fibroblasts were obtained from three normal male rats, and were processed under sterile conditions. The urethra was cut into 1-2 mm pieces and rinsed several times in a solution containing 0.2 ml/10 ml penicillin/streptomycin and 50 micrograms/ml gentamycin. Each piece of urethra was placed in a 1 ml well of a 24 well plate (Greiner Labortchnik, Germany). Each well was filled with DMEM (Dulbecco's Modified Eagle's Medium), containing […] of D-glucose. 25% FCS (fetal calf serum), 0.1 ml/10 ml penicillin/streptomycin, 0.1 ml/10 ml glutamine. 50 micrograms/ml gentamycin and 2.5 micrograms/ml amphotericin B. The wells were incubated in an incubator containing 5% CO2 at 37° C. Half of the medium was replaced after 10 days. Two to three days later the cultures were trypsinized with trypsin-EDTA medium. The content of each pair of wells was combined, resuspended in DMEM and placed into one 250-ml flask containing 5 ml of medium. When the cell cultures reached confluency, they were transferred to new flasks with a 1:5 ratio of old to new medium. The concentration of FCS was then decreased to 10%.
For the evaluation of the synthesis of CDP and NCDP, cells were incubated for 24 hours with various concentrations of Halofuginone in 0.5 m glutamine-free DMEM containing 5% FCS, ascorbic acid (50 micrograms/ml), β-aminopropionitrile (50 micrograms/ml) and 2 micro-curies of [^3H]proline. At the end of the incubation period, the medium was decanted and incubated with or without collagenase for 18 hours, followed by TCA precipitation. The amount of radiolabeled collagen was estimated as the difference between total [^3H]proline containing proteins and protein remaining after collagenase digestion.

O=C(CC1NCCC[C@H]1O)Cn1cnc2cc(Br)c(Cl)cc2c1=O (stereo partly shown) [Halofuginone]
wound strength (skin wound): did not reduce wound strength
reduction in the expression of the collagen α1(I) gene (collagen α1(I) gene): 5.3 fold
amount of collagen in the biopsies (collagen; given locally (FIG. 7D)): decreased the amount of collagen
amount of collagen in the biopsies (collagen; given orally (FIG. 7C)): decreased the amount of collagen
number of cells [1]: did not affect
appearance of non-collagenase digestible proteins (NCDP) ([1]; 24 hours incubation): did not affect
inhibition at 0.01 µM ([1]; Rattus norvegicus, Fibroblast, 10^−8 M Halofuginone, 24 hours, read-out: inhibition of the levels of collagenase-digestible proteins (CDP)): 40%
